Experiment: Rat feeding trial (Ratten-Fütterungsversuch), growth promotion
Assay type: in vivo, Laborratten vom Typ SPF Wistar
Settings: female rats 90-110 g, active substance in feed ad lib, Dosis 25 ppm, 13-day trial, weight gain relative to Kontrolle = 100
Text: Weibliche Laborratten 90-110 g schwer vom Typ SPF Wistar tZüchtung Hagemann) werden ad lib mit Standard Rattenfutter, das mit der gewünschten Menge Wirkstoff versetzt ist, gefüttert. Jeder Versuchsansatz wird mit Futter der identischen Charge durchgeführt, so daß Unterschiede in der Zusammensetzung des Futters die Vergleichbarkeit der Ergebnisse nicht beeinträchtigen können.
Die Ratten erhalten Wasser ad lib.
Jeweils 12 Ratten bilden eine Versuchsgruppe und werden mit Futter, das mit der gewünschten Menge Wirkstoff versetzt ist gefüttert. Eine Kontrollgruppe erhält Futter ohne Wirkstoff. Das durchschnittliche Körpergewicht sowie die Streuung in den Körpergewichten der Ratten ist in jeder Versuchsgruppe gleich, so daß eine Vergleichbarkeit der Versuchsgruppen untereinander gewährleistet ist.
Während des 13-tägigen Versuchs werden Gewichtszunahme und Futterverbrauch bestimmt.
Es werden die aus der Tabelle ersichtlichen Ergebnisse erhalten: […]

SMILES: FC(F)(F)c1ccc(CNC2=NCCCCC2)cc1 [Beispiel 3]
- Zuwachs: 107

SMILES: FC(F)(F)c1cccc(CNC2=NCCCCC2)c1 [14 (Maleinat)]
- Zuwachs: 117

SMILES: CC(NC1=NCCCCC1)c1cccc(C(F)(F)F)c1 (stereo not drawn) [Beispiel 1]
- Zuwachs: 111

SMILES: FC(F)(F)c1cccc(CNC2=NCCCCC2)c1 [Beispiel 13, 2-(3-Trifluormethyl-benzylamino)-tetrahydroazepin]
- Zuwachs: 112

SMILES: FC(F)(F)c1ccccc1CNC1=NCCCCC1 [Beispiel 10]
- Zuwachs: 107

SMILES: CC(C)c1ccc(C(F)(F)F)cc1CNC1=NCCCCC1 [Beispiel 9]
- Zuwachs: 104

From EP0212479A1, “Use of lactam amides as efficiency improvers in animals” (BAYER AG, priority 1985, dated 1987)
